Assay [1] addresses T1, xanthine oxidase (Bos taurus, UniProt P80457). Put plainly: Kinetics of xanthine oxidase inhibition. The format is biochemical. The note with it: Lineweaver-Burk double reciprocal plots, xanthine as substrate.
Assay [2] addresses T1, xanthine oxidase. As to the kind of experiment: Xanthine oxidase inhibitory assay. The assay is classed as biochemical.
Assay [3] concerns the target T1, xanthine oxidase. The following applies: cited from earlier work; for inhibition of the xanthine oxidase enzyme (in words): ref Mostafa et al., 2007.

Read-outs that look alike come from different tables or passages of the source.

T1 sequence (P80457 whole entry): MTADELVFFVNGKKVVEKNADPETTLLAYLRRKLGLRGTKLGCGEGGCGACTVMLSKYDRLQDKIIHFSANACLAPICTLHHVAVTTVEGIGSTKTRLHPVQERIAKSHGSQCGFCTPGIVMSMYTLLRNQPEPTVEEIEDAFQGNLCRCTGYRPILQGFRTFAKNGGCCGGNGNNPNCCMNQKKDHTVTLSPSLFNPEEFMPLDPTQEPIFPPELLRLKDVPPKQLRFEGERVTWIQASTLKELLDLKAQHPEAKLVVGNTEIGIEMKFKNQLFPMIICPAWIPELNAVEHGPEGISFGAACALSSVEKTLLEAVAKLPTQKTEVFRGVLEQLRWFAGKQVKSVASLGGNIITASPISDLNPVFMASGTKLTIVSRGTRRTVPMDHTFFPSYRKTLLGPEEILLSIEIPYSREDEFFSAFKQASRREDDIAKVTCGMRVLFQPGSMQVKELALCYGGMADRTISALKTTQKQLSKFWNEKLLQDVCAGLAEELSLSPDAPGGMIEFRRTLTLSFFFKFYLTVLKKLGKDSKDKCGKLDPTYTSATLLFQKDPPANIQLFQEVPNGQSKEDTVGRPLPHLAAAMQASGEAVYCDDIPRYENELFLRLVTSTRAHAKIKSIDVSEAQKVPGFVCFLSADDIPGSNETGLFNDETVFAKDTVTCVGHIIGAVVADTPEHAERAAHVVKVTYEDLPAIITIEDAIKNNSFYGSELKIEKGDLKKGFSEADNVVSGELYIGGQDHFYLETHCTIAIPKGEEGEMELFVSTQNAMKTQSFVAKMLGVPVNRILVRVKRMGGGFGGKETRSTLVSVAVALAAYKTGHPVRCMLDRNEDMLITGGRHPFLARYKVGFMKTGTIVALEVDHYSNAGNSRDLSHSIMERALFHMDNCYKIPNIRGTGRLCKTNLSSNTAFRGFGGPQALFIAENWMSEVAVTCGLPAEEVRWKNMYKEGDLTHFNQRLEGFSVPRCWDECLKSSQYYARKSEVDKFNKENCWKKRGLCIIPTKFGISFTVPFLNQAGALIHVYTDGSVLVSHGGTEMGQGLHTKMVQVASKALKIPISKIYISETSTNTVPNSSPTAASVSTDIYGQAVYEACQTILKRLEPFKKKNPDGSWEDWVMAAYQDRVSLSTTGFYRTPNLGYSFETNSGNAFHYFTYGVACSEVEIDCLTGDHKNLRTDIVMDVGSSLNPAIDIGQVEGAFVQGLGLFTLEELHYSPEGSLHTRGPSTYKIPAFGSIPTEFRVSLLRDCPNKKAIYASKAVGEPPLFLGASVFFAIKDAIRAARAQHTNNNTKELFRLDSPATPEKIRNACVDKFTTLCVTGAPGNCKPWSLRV

On to `Oc1ncnc2[nH]ncc12` [Allopurinol], for which the “type of inhibition” value in assay [1] is listed as “competitive”.

A word on the IC50: it is the concentration that gives 50% inhibition. Regarding `COc1ccc(/C=C/C(=O)O)cc1` [Compound 3, trans-4-methoxycinnamic acid], the “type of inhibition” value in assay [1] is given as “competitive”. The half-inhibitory concentration (IC50) in assay [2] worked out at 26.3 ± 3.36 µM.

On to `O=C(O)/C=C/c1ccc(O)cc1` [Compound 5, p-coumaric acid], for which, in assay [1], the “type of inhibition” value is recorded as “competitive”. The compound also gave an IC50 in assay [2] of 23.3 ± 1.88 µM.

For `COc1ccc(CCO[C@@H]2O[C@H](CO[C@@H]3OC[C@H](O)[C@H](O)[C@H]3O)[C@@H](OC(=O)/C=C/c3ccc(O)c(OC)c3)[C@H](O[C@@H]3O[C@@H](C)[C@H](O)[C@@H](O)[C@H]3O)[C@H]2O)cc1O` [angoroside C], in assay [3], the “inhibition of the xanthine oxidase enzyme (in words)” value is recorded as “moderate inhibitors”.

Regarding `O=c1cc(-c2ccc(O)cc2)oc2cc(O)cc(O)c12` [apigenin], in assay [3] (ref Lin et al., 2002), the type of inhibition result is given as “competitive”.

`O=C(O)/C=C/c1ccc(O)c(O)c1` [caffeic acid]: in assay [3] (ref Nguyen et al., 2006), the IC50 is 85.4 µM and the inhibition type entry was “competitive”.

For `O=c1c(-c2ccc(O)cc2)coc2cc(O)cc(O)c12` [genistein], the type of inhibition result in assay [3] (ref Lin et al., 2002) is listed as “competitive”.

As for `COc1ccc(CCO[C@@H]2O[C@H](CO)[C@@H](OC(=O)/C=C/c3ccc(O)c(OC)c3)[C@H](O[C@@H]3O[C@@H](C)[C@H](O)[C@@H](O)[C@H]3O[C@@H]3O[C@H](CO)[C@@H](O)[C@H](O)[C@H]3O)[C@H]2O)cc1O` [incanoside D], the “inhibition of the xanthine oxidase enzyme (in words)” value in assay [3] is recorded as “moderate inhibitors”.

The Ki is the dissociation constant of the complex between target and ligand, obtained from inhibition or displacement. Regarding `O=c1cc(-c2ccc(O)c(O)c2)oc2cc(O)cc(O)c12` [luteolin], the inhibition constant (Ki) in assay [3] (read-out: inhibition constant (Ki), ref Yan et al., 2013) was 2.38 µM. Besides, in assay [3] (ref Yan et al., 2013), the concentration for half-maximal inhibition (IC50) was 4.79 µM and the type of inhibition entry was “competitive”.

On to `COC(=O)/C=C/c1ccc(O)c(O)c1` [methyl caffeate], for which, in assay [3] (ref Nguyen et al., 2006), the IC50 is 12.3 µM and the inhibition type entry is listed as “competitive”.

For `O=c1c(O)c(-c2cc(O)c(O)c(O)c2)oc2cc(O)cc(O)c12` [myricetin], the type of inhibition entry in assay [3] (ref Lin et al., 2002) was “competitive”.

As for `O=c1c(O)c(-c2ccc(O)c(O)c2)oc2cc(O)cc(O)c12` [quercetin], the type of inhibition result in assay [3] (ref Lin et al., 2002) was “competitive”.

The values above are taken from PMC10909772 (Saudi Pharmaceutical Journal : SPJ, 2024).
